Source: ChEMBL document CHEMBL4373629, “Dual inhibitors of LSD1 and spermine oxidase” (Medchemcomm, 2019)
Activity calls are given as the source filed them. The calls are words filed in the database; no cut-off is given here.

What was measured:
[1] = target: T1, MAOA (amine oxidase [flavin-containing] A) (Homo sapiens, UniProt P21397); test: Inhibition of MAOA (unknown origin) using luminogenic substrate at 10 uM incubated for 1 hr by luminescence based assay relative to control; details: MAOA enzyme (unknown origin), probe luminogenic substrate
T1 sequence (P21397 whole entry): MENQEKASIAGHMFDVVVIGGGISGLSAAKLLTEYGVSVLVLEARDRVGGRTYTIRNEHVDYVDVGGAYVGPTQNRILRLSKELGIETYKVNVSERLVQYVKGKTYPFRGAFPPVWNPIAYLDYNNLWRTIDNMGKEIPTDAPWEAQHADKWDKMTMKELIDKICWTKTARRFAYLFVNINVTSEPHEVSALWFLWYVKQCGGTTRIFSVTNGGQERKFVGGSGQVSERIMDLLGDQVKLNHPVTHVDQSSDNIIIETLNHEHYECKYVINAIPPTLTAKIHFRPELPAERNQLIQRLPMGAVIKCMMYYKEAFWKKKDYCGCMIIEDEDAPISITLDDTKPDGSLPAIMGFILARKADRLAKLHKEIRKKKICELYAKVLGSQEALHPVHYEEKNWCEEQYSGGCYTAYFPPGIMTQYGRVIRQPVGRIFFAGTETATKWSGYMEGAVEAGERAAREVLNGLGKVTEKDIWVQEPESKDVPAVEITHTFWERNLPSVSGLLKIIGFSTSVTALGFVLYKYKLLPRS

[2] = target: T2, Amine oxidase [flavin-containing] A (Homo sapiens, UniProt P21397); test: Inhibition of MAOA (unknown origin) using luminogenic substrate incubated for 1 hr by luminescence based assay
T2 sequence (P21397 whole entry): T1 sequence (P21397 whole entry)

[3] = target: T3, MAOB (amine oxidase [flavin-containing] B) (Homo sapiens, UniProt P27338); test: Inhibition of MAOB (unknown origin) using luminogenic substrate at 10 uM incubated for 1 hr by luminescence based assay relative to control; details: MAOB enzyme (unknown origin), probe luminogenic substrate
T3 sequence (P27338 whole entry): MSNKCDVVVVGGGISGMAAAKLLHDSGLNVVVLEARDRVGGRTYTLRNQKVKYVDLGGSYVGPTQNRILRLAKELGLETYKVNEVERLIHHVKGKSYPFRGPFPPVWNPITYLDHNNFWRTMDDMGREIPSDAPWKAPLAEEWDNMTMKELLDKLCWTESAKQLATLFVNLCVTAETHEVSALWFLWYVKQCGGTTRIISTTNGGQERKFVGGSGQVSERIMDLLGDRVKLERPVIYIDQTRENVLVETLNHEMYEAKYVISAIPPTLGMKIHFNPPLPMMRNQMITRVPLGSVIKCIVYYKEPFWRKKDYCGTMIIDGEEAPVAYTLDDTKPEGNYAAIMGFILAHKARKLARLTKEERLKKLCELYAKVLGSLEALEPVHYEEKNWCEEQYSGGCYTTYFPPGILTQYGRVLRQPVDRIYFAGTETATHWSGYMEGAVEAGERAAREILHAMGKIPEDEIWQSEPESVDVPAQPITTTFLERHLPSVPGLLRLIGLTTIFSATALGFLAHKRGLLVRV

[4] = target: T4, Amine oxidase [flavin-containing] B (Homo sapiens, UniProt P27338); test: Inhibition of MAOB (unknown origin) using luminogenic substrate incubated for 1 hr by luminescence based assay
T4 sequence (P27338 whole entry): T3 sequence (P27338 whole entry)

[5] = target: T5, Spermine oxidase (Homo sapiens, UniProt Q9NWM0); test: Inhibition of SMOX (unknown origin) assessed as decrease in spermidine formation using spermine as substrate at 10 uM treated with compound 2 mins prior to substrate addition followed by further incubation for 1 hr by HPLC analysis relative to control
T5 sequence (Q9NWM0 whole entry): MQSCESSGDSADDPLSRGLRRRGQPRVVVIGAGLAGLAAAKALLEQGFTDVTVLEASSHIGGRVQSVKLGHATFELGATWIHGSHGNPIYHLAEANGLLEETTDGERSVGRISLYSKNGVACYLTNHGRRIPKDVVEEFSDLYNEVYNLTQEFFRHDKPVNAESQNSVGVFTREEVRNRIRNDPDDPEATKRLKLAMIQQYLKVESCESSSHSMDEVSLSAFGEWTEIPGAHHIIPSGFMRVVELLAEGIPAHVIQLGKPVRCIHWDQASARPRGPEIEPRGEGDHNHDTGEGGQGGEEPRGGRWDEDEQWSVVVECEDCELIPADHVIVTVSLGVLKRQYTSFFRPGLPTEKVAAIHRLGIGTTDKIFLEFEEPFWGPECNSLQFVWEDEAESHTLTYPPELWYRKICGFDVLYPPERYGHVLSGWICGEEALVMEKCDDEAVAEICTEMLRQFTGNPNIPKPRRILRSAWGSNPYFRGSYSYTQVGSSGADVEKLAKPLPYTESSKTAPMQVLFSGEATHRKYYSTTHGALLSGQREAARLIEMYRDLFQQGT

[6] = target: T5, Spermine oxidase; test: Inhibition of SMOX (unknown origin) assessed as decrease in spermidine formation using spermine as substrate treated with compound 2 mins prior to substrate addition followed by further incubation for 1 hr by HPLC analysis
[7] = system: RAW264.7; test: Inhibition of reactive oxygen species formation in mouse RAW264.7 cells infected with Helicobacter pylori; format: functional, cell-based
[8] = cells; details: Homo sapiens, MIA PaCa-2, 72 h
Description: Antiproliferative activity against human MiaPaCa cells assessed as reduction in cell growth incubated for 72 hrs by MTS assay

[9] = target: Peroxisomal N(1)-acetyl-spermine/spermidine oxidase (Homo sapiens, UniProt Q6QHF9); test: Inhibition of PAOX (unknown origin) assessed as decrease in spermidine formation using N-acetylspermine as substrate treated with compound 2 mins prior to substrate addition followed by further incubation for 1 hr by HPLC analysis
Sequence of Peroxisomal N(1)-acetyl-spermine/spermidine oxidase (Q6QHF9 whole entry): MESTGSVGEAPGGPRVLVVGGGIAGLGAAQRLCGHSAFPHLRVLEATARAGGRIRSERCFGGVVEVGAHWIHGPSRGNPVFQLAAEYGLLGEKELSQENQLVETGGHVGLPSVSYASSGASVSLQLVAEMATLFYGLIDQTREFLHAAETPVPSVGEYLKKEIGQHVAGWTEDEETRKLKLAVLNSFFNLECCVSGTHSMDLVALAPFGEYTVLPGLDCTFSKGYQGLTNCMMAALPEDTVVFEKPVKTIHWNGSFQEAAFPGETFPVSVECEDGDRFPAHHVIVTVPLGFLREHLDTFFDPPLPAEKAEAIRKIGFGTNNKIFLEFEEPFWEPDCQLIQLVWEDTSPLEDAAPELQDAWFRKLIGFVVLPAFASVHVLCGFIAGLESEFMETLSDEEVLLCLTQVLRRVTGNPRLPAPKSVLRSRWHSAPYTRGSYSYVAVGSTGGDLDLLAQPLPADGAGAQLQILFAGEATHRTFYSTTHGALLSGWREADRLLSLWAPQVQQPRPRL

[10] = target: T5, Spermine oxidase; test: Potency index, ratio of MDL72527 IC50 to compound IC50 for SMOX (unknown origin) using spermine as substrate treated with compound 2 mins prior to substrate addition followed by further incubation for 1 hr by HPLC analysis
[11] = system: BXPC-3; test: cells; details: Homo sapiens, BXPC-3, 72 h
Description: Antiproliferative activity against human BxPC3 cells assessed as reduction in cell growth incubated for 72 hrs by MTS assay

[12] = target: LSD1/CoREST complex (Homo sapiens, UniProt O60341); test: Inhibition of recombinant LSD1/CoREST (unknown origin) incubated for 30 mins to 4 hrs by fluorescence based assay; format: protein-complex assay
[13] = system: BXPC-3; test: Antiproliferative activity against human BxPC3 cells assessed as reduction in cell growth at 10 to 100 uM incubated for 72 hrs by MTS assay relative to control; format: functional

| SMILES | inhibition at 1 h, 10 µM [1] [%] | IC50 [2] [µM] | inhibition at 1 h, 10 µM [3] [%] | IC50 [4] [µM] | inhibition [5] [%] | IC50 [6] [µM] | inhibition [7] | IC50 [8] [µM] | IC50 [9] [µM] | Ratio IC50 [10] | IC50 [11] [µM] | IC50 [12] [µM] | inhibition (INH) [13] [%] |
| --- | --- | --- | --- | --- | --- | --- | --- | --- | --- | --- | --- | --- | --- |
| Nc1nnc(NCc2c(Cl)cccc2Oc2ccccc2)[nH]1 | 0 | > 200 | 0 | > 200 | 28 | 178 | Active | 2.66 | – | – | – | – | – |
| CC(C)(C)c1ccc(Oc2ccccc2CNc2nc(N)n[nH]2)cc1 | – | 61.5 | 32.3 | – | 0 | > 200 | – | – | > 200 | – | – | – | – |
| Nc1n[nH]c(NCc2ccccc2Oc2ccc(-c3ccccc3)cc2)n1 | – | 50 | 26.4 | – | 25.7 | 25.7 | – | 30 to 200 | > 200 | 3.5 | 61.5 | – | – |
| Cc1ccc(C(C)C)c(Oc2ccccc2CNc2nc(N)n[nH]2)c1 | – | 55.5 | 49.7 | – | 13.9 | > 200 | – | – | > 200 | – | – | – | – |
| Cc1cccc(Oc2ccccc2CNc2nc(N)n[nH]2)c1C | 0 | > 200 | 68.6 | – | 0 | > 200 | – | – | > 200 | – | – | – | – |
| Nc1n[nH]c(NCc2c(Cl)cccc2Oc2cccc3ccccc23)n1 | 0 | > 200 | 7.12 | > 200 | 19 | 148 | – | 30 to 200 | – | – | > 100 | 0.19 to 0.23 | – |
| Nc1n[nH]c(NCc2ccccc2Oc2ccc3ccccc3c2)n1 | – | 79.2 | 81.6 | – | 0 | > 200 | – | – | > 200 | – | – | – | – |
| Cc1cc(C)cc(Oc2ccccc2CNc2nc(N)n[nH]2)c1 | – | 91.4 | 83.4 | – | 0 | > 200 | – | – | > 200 | – | – | – | – |
| Nc1n[nH]c(NCc2ccccc2Oc2ccc(Br)cc2C(F)(F)F)n1 | – | 3 | 90.1 | – | 0 | 121 | – | 30 to 200 | > 200 | – | > 100 | – | – |
| CSc1ccc(Oc2ccccc2CNc2nc(N)n[nH]2)cc1 | – | 38.4 | 31.7 | – | 0 | > 200 | – | – | > 200 | – | – | – | – |
| Nc1n[nH]c(NCc2ccccc2Oc2ccccc2)n1 | – | 50.2 | 18.8 | – | 0 | > 200 | – | – | > 200 | – | – | – | – |
| N[C@@H]1C[C@H]1c1ccccc1.N[C@H]1C[C@@H]1c1ccccc1 | – | – | – | – | 0 | – | – | – | – | – | – | – | – |
| Nc1n[nH]c(NCc2c(Cl)cccc2Oc2ccc3ccccc3c2)n1 | 0 | > 200 | 0 | > 200 | 23.6 | 163 | – | – | – | – | – | – | – |
| COc1cc(OC)cc(Oc2ccccc2CNc2nc(N)n[nH]2)c1 | 0 | > 200 | 17.1 | – | 0 | > 200 | – | – | > 200 | – | – | – | – |
| C=C=CCNCCCCNCC=C=C | 0 | > 200 | 0 | > 200 | 4.8 | 89.7 | – | – | – | – | – | > 100 | – |
| Nc1ccn([C@@H]2O[C@H](CO)[C@@H](O)C2(F)F)c(=O)n1 [GEMCITABINE] | – | – | – | – | – | – | – | 1.86 | – | – | 5.71 | – | 30 |
| Nc1n[nH]c(NCc2ccccc2Oc2ccc(F)cc2)n1 | – | 89.3 | 40.7 | – | 0 | > 200 | – | – | > 200 | – | – | – | – |
